# Measurements taken from EP3322687B1, “2-BENZYL-INDANONE COMPOUNDS AS ANTICANCER AGENT AND A PROCESS FOR PREPARATION THEREOF” (Council of Scientific and Industrial Research, priority 2015, dated 2017).
# Values joined by “and” are separate entries in the source; they are usually repeats but may differ in a detail not shown here. Equal values may be shown once.
# Tests used:
# [1] = system: various human cancer cell lines; experiment: Cytotoxicity against various human cancer cell lines (summary statement); format: cell-based; settings: read-out: cytotoxicity against various human cancer cell lines, IC50
# Procedure: The benzyl compounds were evaluated by Sulforhodamine B Assay as per reported method [Skehan etal., J. Natl. Cancer Inst.1990, 82, 1107]. The human cancer cell lines procured from National Cancer Institute, Frederick, U. S. A. were used in present study. Cells were grown in tissue culture flasks in complete growth medium (RPMI-1640 medium with 2 mM glutamine, pH 7.4 supplemented with 10% fetal bovine serum, 100 µg/ml streptomycin and 100 units/ml penicillin) in a carbon dioxide incubator (37°C, 5% CO2, 90% RH). The cells at subconfluent stage were harvested from the flask by treatment with trypsin (0.05% in PBS (pH 7.4) containing 0.02% EDTA). Cells with viability of more than 98%, as determined by trypan blue exclusion, were used for determination of cytotoxicity. The cell suspension required concentration of cells was prepared in complete growth medium. Stock solution of 2x10^-2 M of compounds were prepared in DMSO and further dilution was carried out complete growth medium containing 50µg/ml of gentamycin to obtained working test solution of required concentration. In vitro cytotoxicity against various human cancer cell lines was determined using 96-well cell culture plates. […] Cell growth was measured by staining with sulforhodamine B dye. […] The optical density (OD) was recorded on ELISA reader at 540nm. […]
# [2] = system: Ehrlich Tumor (solid); format: in vivo, Swiss mice
# Procedure: Ehrlich ascites carcinoma (EAC) cells were collected from the peritoneal cavity of the Swiss mice harbouring 8-10 days old ascitic tumor. 1x10^7 EAC cells were injected intramuscularly in right thigh of Swiss male mice selected for the experiment on day 0. The next day, animals were randomized and divided into different groups. Two treatment groups contained 7 animals each and one control group contained 10 animals. The first treatment group was given compound 2 (20 mg/kg i/p) from day 1-9. The second treatment group was treated with 5-fluorouracil (22 mg/kg, i.p) from day 1-9 and it served as positive control. The control group was similarly administered normal saline (0.2 ml, i.p.) from day 1-9. On day 9 & 13, tumor bearing thigh of each animal was shaved and longest and shortest diameters of the tumor were measured with the help of vernier caliper. Tumor weight of each animal was calculated using the following formula. Tumor weight (mg) = (Length(mm) × ([width(mm)])^2)/(2) [formula]
# The percent tumor growth inhibition was calculated on day 13 by comparing the average values of treated groups with that of control group. Tumor growth in saline treated control animals was taken to be 100%. Table 6. In-vivo anticancer activity of 2 against Ehrlich ascites carcinoma (solid)
# [3] = system: A549 (Lung); experiment: Sulforhodamine B cytotoxicity assay; format: cell-based; settings: Homo sapiens, A549, 48 h, read-out: Human cancer cell lines IC50 A549 (Lung)
# Procedure: (§1) The benzyl compounds were evaluated by Sulforhodamine B Assay as per reported method [Skehan etal., J. Natl. Cancer Inst.1990, 82, 1107]. The human cancer cell lines procured from National Cancer Institute, Frederick, U. S. A. were used in present study. Cells were grown in tissue culture flasks in complete growth medium (RPMI-1640 medium with 2 mM glutamine, pH 7.4 supplemented with 10% fetal bovine serum, 100 µg/ml streptomycin and 100 units/ml penicillin) in a carbon dioxide incubator (37°C, 5% CO2, 90% RH). The cells at subconfluent stage were harvested from the flask by treatment with trypsin (0.05% in PBS (pH 7.4) containing 0.02% EDTA). Cells with viability of more than 98%, as determined by trypan blue exclusion, were used for determination of cytotoxicity. The cell suspension required concentration of cells was prepared in complete growth medium. Stock solution of 2x10^-2 M of compounds were prepared in DMSO and further dilution was carried out complete growth medium containing 50µg/ml of gentamycin to obtained working test solution of required concentration. In vitro cytotoxicity against various human cancer cell lines was determined using 96-well cell culture plates. The 100µl of cell suspension was added to each well of the 96-well cell culture plates. The cells were allowed to grow in CO2 incubator (37°C, 5% CO2, 90% RH) for 24 hours. The test materials in complete growth medium (100 µl) were added after 24 hours incubation to the wells containing cell suspension. The plates were further incubated for 48 hours (37°C in an atmosphere of 5% CO2 and 90% relative humidity) in a carbon dioxide incubator after addition of test material and then the cell growth was stopped by gently layering trichloroacetic acid (50% TCA, 50 µl) on top of the medium in all the wells. The plates were incubated at 4°C for one hour to fix the cells attached to the bottom of the wells. The liquid of all the wells was gently pipetted out and discarded. The plates were washed five times with distilled water to remove TCA, growth medium low molecular weight metabolites, serum proteins etc. and air - dried. Cell growth was measured by staining with sulforhodamine B dye. The adsorbed dye was dissolved in Tris-HCl Buffer (100 µl/well, 0.01M, pH 10.4) and plates were gently stirred for 10 minutes on a mechanical stirrer. The optical density (OD) was recorded on ELISA reader at 540nm. Paclitaxel (Taxol), and 5-Fluorouracil were used as positive controls (Standard drugs).
# [4] = system: HCT-116 (Colon); experiment: Sulforhodamine B cytotoxicity assay; format: cell-based; settings: Homo sapiens, HCT-116, 48 h, read-out: Human cancer cell lines IC50 HCT-116 (Colon)
# Procedure: as §1
# [5] = system: T-47D (Breast cancer); experiment: Sulforhodamine B cytotoxicity assay; format: cell-based; settings: Homo sapiens, T47D, 48 h, read-out: Human cancer cell lines IC50 T-47D (Breast cancer)
# Procedure: as §1
# [6] = system: MCF-7 (Breast cancer); experiment: Sulforhodamine B cytotoxicity assay; format: cell-based; settings: Homo sapiens, MCF7, 48 h, read-out: Human cancer cell lines IC50 MCF-7 (Breast cancer)
# Procedure: as §1
# [7] = system: THP-1 (Leukemia); experiment: Sulforhodamine B cytotoxicity assay; format: cell-based; settings: Homo sapiens, THP-1, 48 h, read-out: Human cancer cell lines IC50 THP-1 (Leukemia)
# Procedure: as §1
# [8] = system: Ehrlich Ascites Carcinoma (EAC); format: in vivo, Swiss mice
# Procedure: Ehrlich ascites carcinoma (EAC) cells were collected from the peritoneal cavity of the Swiss mice harbouring 8-10 days old ascitic tumor. 1x10^7 EAC cells were injected intraperitoneally in Swiss mice selected for the experiment on day 0. The next day, animals were randomized and divided into different groups. The treatment groups contained 7 animals each and control group contained 10 animals. The treatment group was treated with 20 mg/kg of Compound 2 intra-peritoneally from day 1-9. One more of the treatment group received 5-fluorouracil (20 mg/kg, i.p) and it served as positive control. The tumor bearing control group was similarly administered normal saline (0.2 ml, i.p.). On day 12, animals were sacrificed and ascitic fluid was collected from peritoneal cavity of each mouse for the evaluation of tumor growth. Percent tumor growth inhibition was calculated based on the total number of tumor cells present in the peritoneal cavity as on day 12 of the experiment using the following formula. Percent tumor growth inhibition = (Av.no.of cells in control group−Av.no.of cells in treated group)/(Av.no.of cells in control group) × 100 [formula]
compound,measurement,setting,value
"COc1cc(C2c3c(cc(OC)c(OC)c3OC)C(=O)C2Cc2ccc3c(c2)OCO3)cc(OC)c1OC (centres unmarked) [Compound 2, 2-(3"",4""-methylenedioxybenzyl)-3-(3',4',5'-trimethoxyphenyl)-4,5,6-trimethoxy-indan-1-one]",IC50,[1],1 to 3 µM
same,Day 13 Av. Tumor weights,"[2]; 20 mg/kg i/p day 1-9, Day 13",1178.35 ± 32.72 mg
same,%Tumor Growth Inhibition,"[2]; 20 mg/kg i/p day 1-9, day 13",42.77% and 42.771%
same,Mortality,"[2]; 20 mg/kg i/p day 1-9, dead/total animals",0/7
same,Day 13 Av. Body weights,"[2]; 20 mg/kg i/p day 1-9, male Swiss mice, Day 13",23.28 g
same,Av. Body weights (g) of animals on days 1,"[2]; 20 mg/kg i/p day 1-9, male Swiss mice, day 1",21.42 g
same,better activity (in-vivo) over the parent compound 12,"[2]; solid tumour, 20mg/kg dose, relative to compound 12",19.1%
same,IC50,[3],2 µM
same,IC50,[4],3 µM
same,IC50,[5],< 1 µM
same,IC50,[6],3 µM
same,IC50,[7],1 µM
same,%Tumor Growth Inhibition,"[8]; 20 mg/kg i/p day 1-9, Day 12",67.64%
same,"Av, Volume of ascitic fluid","[8]; 20 mg/kg i/p day 1-9, Day 12",6.31 mL
same,Av. No. of tumor cells,"[8]; 20 mg/kg i/p day 1-9, Day 12",44.78 x 10^7
same,Av. Weight of ascitic fluid,"[8]; 20 mg/kg i/p day 1-9, Day 12",6.02 g
same,% Tumor cell growth,"[8]; 20 mg/kg i/p day 1-9, Day 12, control = 100",32.36%
same,Mortality,"[8]; 20 mg/kg i/p day 1-9, Day 12, dead/total animals",0/7
same,Body weight Day 1,"[8]; 20 mg/kg i/p day 1-9, EAC-bearing female Swiss mice, Day 1",21.0 g
same,Body weight Day 5,"[8]; 20 mg/kg i/p day 1-9, EAC-bearing female Swiss mice, Day 5",21.86 g
same,Body weight Day 9,"[8]; 20 mg/kg i/p day 1-9, EAC-bearing female Swiss mice, Day 9",22.28 g
same,Body weight Day 12,"[8]; 20 mg/kg i/p day 1-9, EAC-bearing female Swiss mice, Day 12",22.66 g
same,better activity (in-vivo) over the parent compound 12,"[8]; Ehrlich ascites carcinoma, 20mg/kg dose, relative to compound 12",48.72%
